The subject of experiment [1] is HepG2 cells. Kind of experiment: Seahorse oxygen consumption rate and dependency on FAO. It counts as cell-based. The settings on record: 10 µM acute stimulation, increase attenuated by etomoxir 6 µM. As for the experimental part:
HepG2 cells were obtained from the American Type Culture Collection (ATCC) and cultured at 37° C. and 5% CO2 in Dulbecco’s Modified Eagle Medium (DMEM, Gibco) supplemented with 10% fetal bovine serum (FBS, Sigma-Aldrich) and 1% Penicillin-Streptomycin (Pen-Strep, Gibco). Oxygen consumption rate (OCR) and dependency on FAO were assessed using a Seahorse XFe96 Analyzer (Agilent). HepG2 cells were seeded at 2.5x10^4 cells/well in XF96 cell culture microplates (Agilent). The next day, XFe96 sensor cartridges were hydrated in accordance with the manufacturer’s instructions. Cells were treated (port 1) with N-acyl amino acids (10 µM) or vehicle (EtOH), Etomoxir (Agilent, 6 µM, port 2) and finally with rotenone+antimycin A (R/A, Agilent, port 3).

Experiment [2] deals with HepG2 cells. As to the kind of experiment: TG biosynthesis and hydrolysis by [3H]-acetate incorporation. The settings on record: 10 µM; for rate of TG biosynthesis: 3 h [3H]-acetate; for rate of TG hydrolysis: additional 3 h after [3H]-acetate withdrawal. The experiment is classed as cell-based. On the procedure: For the TG biosynthesis and hydrolysis assays, HepG2 cells were seeded in 12-well plates. At 60-70% confluence, cells were treated with N-acyl amino acids (10 µM) or vehicle (EtOH) in serum-free medium supplemented with 0.1% BSA and stimulated for 3 h at 37° C. with [3H]-acetate (3.3 µCi/ml, ART 0202, American Radiolabeled Chemicals) to assess the rate TG biosynthesis. In some wells, the cells were washed twice with PBS ([3H]-acetate withdrawal) and incubated for additional 3 h with N-acyl amino acids (10 µM) or vehicle (EtOH) in serum-free medium supplemented with 0.1% BSA to assess the rate TG hydrolysis. At the end of the above incubation periods, cells were washed with twice with PBS. Cellular lipids were extracted using hexane (≥99%, Sigma-Aldrich 32293) and isopropanol (≥99.5%, Fisher Scientific A426-4) at a 3:2 ratio (v:v), and the hexane phase was left to evaporate for 48 h. Next, lipids were separated by thin layer chromatography (TLC) on silica gel plates (60 F254, M1057150001, Fisher Scientific) and developed in hexane / ether (≥99.9%, 309966, Sigma-Alrich) / acetic acid (≥99.7%, A38-212, Fisher Scientific) at a 130:30:1.5 ratio (v:v:v). TG spots were visualized by iodine vapor (using an appropriate standard for identification) and [3H]-labels were counted by a Tri-Carb 2810TR liquid scintillation analyzer (PerkinElmer). Data were normalized to protein levels and presented as count per minutes (CPM)/mg cell protein.

The next experiment has as its target T1, PPARα (Homo sapiens, UniProt Q07869).
T1 construct: expressed in transfected cells; host or cells: COS-1
T1 sequence (Q07869 1-468): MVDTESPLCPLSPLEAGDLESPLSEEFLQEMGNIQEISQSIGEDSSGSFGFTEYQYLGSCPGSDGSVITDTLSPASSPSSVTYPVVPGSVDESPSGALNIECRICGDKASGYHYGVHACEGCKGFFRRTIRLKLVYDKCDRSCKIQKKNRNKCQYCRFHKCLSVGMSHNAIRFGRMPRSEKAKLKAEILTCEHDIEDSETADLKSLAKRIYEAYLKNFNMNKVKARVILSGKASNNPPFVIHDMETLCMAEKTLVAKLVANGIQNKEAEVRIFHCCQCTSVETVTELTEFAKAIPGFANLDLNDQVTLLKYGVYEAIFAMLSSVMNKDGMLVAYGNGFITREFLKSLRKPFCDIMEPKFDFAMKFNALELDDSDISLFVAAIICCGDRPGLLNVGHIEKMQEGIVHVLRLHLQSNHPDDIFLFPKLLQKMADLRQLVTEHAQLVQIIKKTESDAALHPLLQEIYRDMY
As to the kind of experiment: PPREx3-TK-luciferase PPARα reporter assay in COS-1 cells. It counts as cell-based. The note with it: 24 h. As for the experimental part: COS-1 and HepG2 cells were obtained from the American Type Culture Collection (ATCC) and cultured at 37° C. and 5% CO2 in Dulbecco’s Modified Eagle Medium (DMEM, Gibco) supplemented with 10% fetal bovine serum (FBS, Sigma-Aldrich) and 1% Penicillin-Streptomycin (Pen-Strep, Gibco). For luciferase assays, COS-1 cells were seeded in 96-well plates. At 60-70% confluence, transfection was performed using Lipofectamine 3000 (Invitrogen) with PPREx3-TK-luciferase, PPARα and Renilla constructs at 80 ng, 10 ng and 10 ng, respectively. 24 h post-transfection, cells were serum-starved and treated with 10 µM of the PPARα activator WY-14643 (Cayman Chemicals, 70730), 1 mM of glycine or tripepetide glycine-glycine-leucine or 10 µM of N-acyl amino acids for 24 h (Cayman Chemicals, C20:4-Gly 90051, C18:1-Leu 20064). Luciferase activity was assessed using the Dual-Luciferase Reporter Assay System (Promega) and normalized by Renilla.
In general terms: Reporter assays use an easily measured gene product as a stand-in for the process of interest.

Experiment [3] relates to Apolipoprotein E-deficient (Apoe-/-) mice. Kind of experiment: Treatment of atherosclerosis in Western diet-fed mice with I.P. N-oleoyl leucine. It counts as in vivo. The settings on record: 7.5 mg/kg/d I.P., 4 weeks. As for the experimental part: Apolipoprotein E-deficient (Apoe-′-) mice were fed a Western diet (WD) for 8 weeks. Mice were randomized to receive 7.5 mg/kg/d (I.P.) N-oleoyl leucine (C18:1-Leu) or equivalent amounts of oleic acid (C18:1) for an additional 4 weeks on the WD (n=10).

For experiment [4], the system named is C57BL/6J mice fed NASH diet. As to the kind of experiment: Treatment of NASH in mice with I.P. N-oleoyl leucine. It counts as in vivo. The settings on record: 10 mg/kg/d I.P. On the procedure: C57BL/6J mice were fed a standard diet (SD) or non-alcoholic steatohepatitis (NASH) diet for 16 weeks. After NASH confirmation, mice were randomized to receive 10 mg/kg/d (I.P.) N-oleoyl leucine (C18:1-Leu) or equivalent amounts of oleic acid (C18:1) or vehicle (EtOH) for an additional 6 weeks on the NASH diet. Control mice were fed the SD and administered vehicle.

For experiment [5], the system named is C57BL/6J mice fed NASH diet. Kind of experiment: NASH diet mouse model, oral treatment with tripeptide glycine-glycine-leucine, glycine or leucine. The experiment is classed as in vivo. As for the experimental part:
To explore the therapeutic potential of […] against NASH, an experimental approach to model advanced NAFLD was used. As described, C57BL/6J mice were fed a high-fat, high-fructose and high-cholesterol diet (NASH diet) for 12 weeks. After confirming NASH, the mice were randomized to receive orally […] at 0.125 or 0.5 mg/g/day, equivalent amounts of leucine, glycine or H2O for 12 additional weeks on NASH diet. Mice fed low-fat control diet (CD) and administered H2O served as control. Animal procedures were approved (PRO00008239) by the Institutional Animal Care & Use Committee of the University of Michigan (U-M) and performed in accordance with the institutional guidelines. Seven weeks-old male C57BL/were from Jackson Laboratories. After one week of acclimation, mice were fed ad libitum either low-fat control diet (CD, Research Diets D17072805, 10% fat) or high-fat, high-fructose and high-cholesterol diet (NASH diet, Research Diets D17010103). After confirming NASH, the mice were randomized to receive orally […] (Beijing SL Pharmaceutical) at 0.125 or 0.5 mg/g/day, equivalent amounts of leucine (0.17 mg/g/day, Sigma-AldrichL8912), glycine (0.33 mg/g/day, Sigma-Aldrich G5417) or H2O for 12 additional weeks on NASH diet. All histological procedures were performed by the In Vivo Animal Core (IVAC) Histology Laboratory at the U-M. Technicians were blinded to experimental groups. Formalin-fixed tissues were processed through graded alcohols and cleared with xylene followed by infiltration with molten paraffin using an automated VIP5 or VIP6 tissue processor (TissueTek, Sakura-Americas). Using a Histostar Embedding Station (ThermoFisher Scientific), tissues were then sectioned on a […] rotary microtome (ThermoFisher Scientific) at 4 μm thickness and mounted on glass slides. Slides were stained for hematoxylin and eosin (H&E, ThermoFisher Scientific). For Sirius Red staining, slides were treated with 0.2 phosphomolybdic acid for 3 min and transferred to 0.1% Sirius Red saturated in picric acid (Rowley Biochemical Inc.) for 90 min, then transferred to 0.01N hydrochloric acid for 3 min. Frozen section processing was used for Oil Red O staining. Formalin-fixed liver samples were cryoprotected in 20% sucrose at 4° C. overnight, blotted, then liquid nitrogen-snap frozen in OCT compound (Tissue-Tek, Cat #4583) and stored at -80° C. until ready for cryosectioning. Prior to sectioning, frozen blocks were brought up to about -20° C., then sectioned at 5 μm on a Cryotome SME (Thermo-Shandon, Cat# 77200227). Slides were stored at -80° C. until stained. Prior to staining, liver slides were thawed to room temperature for 30 min. Slides were post-fixed in 10% Neutral Buffered Formalin for 20 min, rinsed in DDW, followed by rinsing in 60% isopropanol before being placed in working Oil Red O-isopropanol stain (Rowley Biochemical Inc., H-503-1B) for 5 min. Slides were then rinsed in 60% isopropanol followed by three changes of DDW. Then, slides were nuclear counterstained in Harris Hematoxylin and mounted in Aqua-Mount (Lerner Laboratories, Cat# 13800) aqueous mounting media. Immunohistochemical staining was performed on a […] automated immunohistochemical stainer (Biocare Medical) with blocking for endogenous peroxidases and non-specific binding, followed by detection using a horseradish peroxidase biotin-free polymer based commercial detection system, disclosure with diaminobenzidine chromogen, and nuclear counterstaining with hematoxylin. Specific to F4/80, (Bio-Rad ABD Serotec, Cat# MCA497), the rat monoclonal primary antibody (clone CI:A3-1) was diluted to 1:400 in DaVinci Diluent (Biocare Medical, Cat# PD900) and incubated for 60 min followed by detection using Rat-on-Mouse HRP-Polymer, (Biocare Medical, Cat# RT517) 2-step probe-polymer incubation for 10 and 30 min respectively. H&E staining was used to score NAFLD activity score (NAS). Steatosis was scored from 0-3 (0: <5% steatosis; 1: 5-33%; 2: 34-66%; 3: >67%). […]

Setting [6] is: NASH diet, oral treatment 12 weeks.
The mark [7] stands for this setting: NASH diet, oral treatment 12 weeks, endpoint.

As for `CCCCC/C=C\C/C=C\C/C=C\C/C=C\CCCC(=O)NCC(=O)O` [N-arachidonoyl glycine], the “oxygen consumption rate (OCR)” value in the experiment with HepG2 cells [1] is recorded as “significantly increased”. Further, in the experiment with HepG2 cells [2], the “rate of TG biosynthesis” value is “attenuated” and the “rate of TG hydrolysis” value is recorded as “significantly accelerated”. Further, the “luciferase activity (PPARα activation), normalized by Renilla” value on PPARα (10 µM) is “significantly increased”.
For the compound `CCCCCCCC/C=C\CCCCCCCC(=O)NCC(=O)O` [N-oleoyl glycine], on PPARα (10 µM), the “luciferase activity (PPARα activation), normalized by Renilla” value is given as “significantly increased”.
Consider `CCCCCCCC/C=C\CCCCCCCC(=O)N[C@@H](CC(C)C)C(=O)O` [N-oleoyl leucine], for which, in the experiment with HepG2 cells [1], the “oxygen consumption rate (OCR)” value is reported as “significantly increased”. Moreover, in the experiment on HepG2 cells [2], the “rate of TG biosynthesis” value is “attenuated” and the “rate of TG hydrolysis” value is on record as “only N-arachidonoyl glycine (C20:4-Gly) significantly accelerated”. Further, the “luciferase activity (PPARα activation), normalized by Renilla” value on PPARα (10 µM) is “significantly increased”. In addition, in experiment [3] (Western diet, vs oleic acid), the body weight result is given as “no significant effects” and the plasma cholesterol result is reported as “no significant effects”. Also, in experiment [3] (aortic sinus H&E, vs oleic acid), the atherosclerotic plaque area entry is on record as “significantly lowers”. The lesional macrophages entry in experiment [3] (aortic sinus Mac-2, vs oleic acid) is given as “significantly lowers”. Further, in experiment [4] (6 weeks, NASH diet), the body weight result was “lowers”. Besides, the hepatomegaly entry in experiment [4] (6 weeks, liver weight to body weight ratio) is “significantly lowers”. For the same compound, the circulating liver enzymes result in experiment [4] (6 weeks, ALT, AST, ALP at endpoint) is reported as “lowers”. Besides, the “NASH diet-induced hepatic and systemic inflammation” value in experiment [4] (6 weeks, F4/80, plasma CCL2, CCL5) is “significantly lowers”. Moreover, the “diet-induced NASH” value in experiment [4] (6 weeks, H&E scoring, NAS) is reported as “significantly lowers”. The hepatic steatosis result in experiment [4] (6 weeks, Oil red O histology) was “significantly lowers”. The “NASH diet-induced hepatic fibrosis” value in experiment [4] (6 weeks, Sirius red fibrosis score) is “significantly lowers”. Further, the “systemic energy balance in NASH” value in experiment [4] (CLAMS: RER, energy expenditure, food intake, total activity) was “no significant effect”. Further, the adiposity entry in experiment [4] (NASH diet, NMR body composition) is “without affecting”.
In the case of `Cc1cccc(Nc2cc(Cl)nc(SCC(=O)O)n2)c1C` [WY-14643, reference compound], the “luciferase activity (PPARα activation), normalized by Renilla” value on PPARα (10 µM) is “significantly increased”.
As to `NCC(=O)O` [glycine], in experiment [5] (LC-MS/MS of liver, chronic treatment), the “decrease of hepatic levels of N-oleoyl glycine, N-arachidonoyl glycine and N-oleoyl leucine in NASH” value was “rescued”. In experiment [5] (setting [6]), the NASH diet-induced hepatomegaly result is “significantly reduced”, the “hepatic fibrosis (Sirius Red staining)” value is reported as “lower”, the “hepatic inflammation (F4/80 macrophage staining)” value was “lower” and the “hepatic steatosis (histological analyses)” value was “lower”. Further, in experiment [5] (setting [7]), the “increase in plasma levels of alanine aminotransferase (ALT)” value was “attenuated” and the “increase in plasma levels of aspartate aminotransferase (AST)” value was “attenuated”. For the same compound, the “suppression of hepatic expression of PPARα and its target genes in NASH” value in experiment [5] (RNA-sequencing, liver) was “reversed”. In addition, the “luciferase activity (PPARα activation), normalized by Renilla” value on PPARα (concentrations of up to 1 mM) is listed as “neither glycine or tripepetide glycine-glycine-leucine showed a significant effect”.
